In patent publication US11938168B2, “Ophthalmic compositions and methods of use therefor” (Auckland Uniservices Limited, priority 2015, dated 2024):

What was measured:
[1] = system: mink lung epithelial (Mv1Lu) cells; settings: exemplary activity; cited from earlier work
keratocytes = experiment: TGFβ3 and dexamethasone tested separately, collagen type II production; format: cell-based; settings: agents tested separately

Molecule | ED50, inhibition of Mv1Lu cell proliferation [1] [µg/mL] | collagen type II production in keratocytes (keratocytes)
TGFβ3: TGFβ3 polypeptide, SEQ ID NO:1; recombinant human TGFβ3 from commercial sources (Abcam, ab52313) | ≤ 0.05 | no collagen type II production
C[C@@H]1C[C@H]2[C@@H]3CCC4=CC(=O)C=C[C@]4(C)[C@@]3(F)[C@@H](O)C[C@]2(C)[C@@]1(O)C(=O)CO [dexamethasone, reference compound] |  | no collagen type II production
